Here are results for 41 compounds from US6995185B2, “Δ1-pyrrolines used as pesticides” (Bayer Cropscience AG, priority 2000, dated 2006).

SMILES strings stand for the structures.

The nature of one data set: log P determination by HPLC on reversed-phase column (C 18), EEC directive 79/831 Annex V.A8. Particulars: reversed-phase HPLC column (C 18), pH 2.3, pH 2.3 (marked a), 0.1% aqueous phosphoric acid/acetonitrile, 43° C. Format: physicochemical. Here is the method: The log P values given in the tables and Preparation Examples above are determined in accordance with EEC directive 79/831 Annex V.A8 by HPLC (High Performance Liquid Chromatography) using a reversed-phase column (C 18). Temperature: 43° C. In the acidic range, the determination is carried out at pH 2.3 using the mobile phases 0.1% aqueous phosphoric acid and acetonitrile; linear gradient from 10% acetonitrile to 90% acetonitrile (marked^a) in the table). In the neutral range, the determination is carried out at pH 7.5 using the mobile phases 0.01-molar aqueous phosphate buffer solution and acetonitrile; linear gradient from 10% acetonitrile to 90% acetonitrile (marked^b) in the table). Calibration is carried out using unbranched alkan-2-ones (having 3 to 16 carbon atoms) with known log P values (determination of the log P values by the retention times using linear interpolation between two successive alkanones).
As to `O=C(OCC1CCCCC1)[C@H]1CC(c2c(F)cccc2F)=NC1c1ccc(-c2ccc(OC(F)(F)F)cc2)cc1` (stereo partly drawn) [Example 41], the chromatographic logP (commonly lipophilicity estimated from chromatographic retention) turned out to be 6.28.

`CC(OC(=O)[C@H]1CC(c2c(F)cccc2F)=NC1c1ccc(-c2ccc(OC(F)(F)F)cc2)cc1)C1CCCCC1` (stereo partly drawn) [Example 50] returned a chromatographic logP of 6.54.

Consider `CCCCCOC(=O)[C@H]1CC(c2c(F)cccc2F)=NC1c1ccc(-c2ccc(OC(F)(F)F)cc2)cc1` (stereo partly drawn) [Example 20], for which the chromatographic logP came to 5.84.

`CCCCNC(=O)[C@H]1CC(c2c(F)cccc2F)=NC1c1ccc(-c2ccc(OC(F)(F)F)cc2)cc1` (stereo partly drawn) [Example 61] came in with a chromatographic logP of 4.03.

As for `CC(C)(C)COC(=O)[C@H]1CC(c2c(F)cccc2F)=NC1c1ccc(-c2ccc(OC(F)(F)F)cc2)cc1` (stereo partly drawn) [Example 21], the chromatographic logP worked out at 5.78.

`O=C(OCc1cccnc1)[C@H]1CC(c2c(F)cccc2F)=NC1c1ccc(-c2ccc(OC(F)(F)F)cc2)cc1` (stereo partly drawn) [Example 54]: the chromatographic logP was 3.59.

On to `O=C(OCc1ccc(Cl)nc1)[C@H]1CC(c2c(F)cccc2F)=NC1c1ccc(-c2ccc(OC(F)(F)F)cc2)cc1` (stereo partly drawn) [Example 47], for which the chromatographic logP was found to be 4.82.

As to `CC(C)(C)NC(=O)[C@H]1CC(c2c(F)cccc2F)=NC1c1ccc(-c2ccc(OC(F)(F)F)cc2)cc1` (stereo partly drawn) [Example 65], the chromatographic logP amounted to 4.23.

For `O=C([C@H]1CC(c2c(F)cccc2F)=NC1c1ccc(-c2ccc(OC(F)(F)F)cc2)cc1)N1CCOCC1` (stereo partly drawn) [Example 90], the chromatographic logP is 3.49.

The compound `O=C(O)[C@H]1CC(c2c(F)cccc2F)=NC1c1ccc(-c2ccc(OC(F)(F)F)cc2)cc1` (stereo partly drawn) [Example 11] had a chromatographic logP of 3.35.

On to `CCC(C)OC(=O)[C@H]1CC(c2c(F)cccc2F)=NC1c1ccc(-c2ccc(OC(F)(F)F)cc2)cc1` (stereo partly drawn) [Example 16], for which the chromatographic logP was 5.4.

`CNC(=O)[C@H]1CC(c2c(F)cccc2F)=NC1c1ccc(-c2ccc(OC(F)(F)F)cc2)cc1` (stereo partly drawn) [Example 58] displayed a chromatographic logP of 3.26.

`O=C(NCc1cccc(Cl)c1)[C@H]1CC(c2c(F)cccc2F)=NC1c1ccc(-c2ccc(OC(F)(F)F)cc2)cc1` (stereo partly drawn) [Example 80] had a chromatographic logP of 4.46.

With `O=C(OCc1ccsc1)[C@H]1CC(c2c(F)cccc2F)=NC1c1ccc(-c2ccc(OC(F)(F)F)cc2)cc1` (stereo partly drawn) [Example 44], the chromatographic logP stood at 5.14.

In the case of `O=C(Nc1ccc(OC(F)(F)F)cc1)[C@H]1CC(c2c(F)cccc2F)=NC1c1ccc(-c2ccc(OC(F)(F)F)cc2)cc1` (stereo partly drawn) [Example 92], the chromatographic logP was 4.87.

`COC(=O)c1cnc(NC(=O)[C@H]2CC(c3c(F)cccc3F)=NC2c2ccc(-c3ccc(OC(F)(F)F)cc3)cc2)s1` (stereo partly drawn) [Example 88] yielded a chromatographic logP of 3.94.

In the case of `CCCCCN(CCCCC)C(=O)[C@H]1CC(c2c(F)cccc2F)=NC1c1ccc(-c2ccc(OC(F)(F)F)cc2)cc1` (stereo partly drawn) [Example 75], the chromatographic logP is 6.43.

For the compound `COC(=O)[C@@H](C)COC(=O)[C@H]1CC(c2c(F)cccc2F)=NC1c1ccc(-c2ccc(OC(F)(F)F)cc2)cc1` (stereo partly drawn) [Example 39], the chromatographic logP is 4.67.

Regarding `COC(=O)[C@H]1CC(c2ccccc2Cl)=N[C@H]1c1ccc(-c2ccc(OC(F)(F)F)cc2)cc1` (racemic) [Example 5, methyl ((2S, 3R), (2R, 3S))-5-(2-chlorophenyl)-2-[4′-(trifluoromethoxy)-1,1′-biphenyl-4-yl]-3,4-dihydro-2H-pyrrole-3-carboxylate], the chromatographic logP was determined as 5.05.

`CC(C)C(C)OC(=O)[C@H]1CC(c2c(F)cccc2F)=NC1c1ccc(-c2ccc(OC(F)(F)F)cc2)cc1` (stereo partly drawn) [Example 22] displayed a chromatographic logP of 5.71.

For `O=C(OCc1ccccn1)[C@H]1CC(c2c(F)cccc2F)=NC1c1ccc(-c2ccc(OC(F)(F)F)cc2)cc1` (stereo partly drawn) [Example 53], the chromatographic logP is 4.13.

Take `COC(=O)[C@H](C)COC(=O)[C@H]1CC(c2c(F)cccc2F)=NC1c1ccc(-c2ccc(OC(F)(F)F)cc2)cc1` (stereo partly drawn) [Example 40]: the chromatographic logP was 4.67.

Regarding `CC(C)OC(=O)[C@H]1CC(c2c(F)cccc2F)=NC1c1ccc(-c2ccc(OC(F)(F)F)cc2)cc1` (stereo partly drawn) [Example 12], the chromatographic logP came out at 5.05.

In turn, `N#CCCCOC(=O)[C@H]1CC(c2c(F)cccc2F)=NC1c1ccc(-c2ccc(OC(F)(F)F)cc2)cc1` (stereo partly drawn) [Example 30] gave a chromatographic logP of 4.18.

In turn, `CCCCN(CCCC)C(=O)[C@H]1CC(c2c(F)cccc2F)=NC1c1ccc(-c2ccc(OC(F)(F)F)cc2)cc1` (stereo partly drawn) [Example 74] showed a chromatographic logP of 5.65.

Regarding `CCCCOC(=O)[C@H]1CC(c2c(F)cccc2F)=NC1c1ccc(-c2ccc(OC(F)(F)F)cc2)cc1` (stereo partly drawn) [Example 14], the chromatographic logP was determined as 5.41.

With `O=C(OCCCc1ccccc1)[C@H]1CC(c2c(F)cccc2F)=NC1c1ccc(-c2ccc(OC(F)(F)F)cc2)cc1` (stereo partly drawn) [Example 33], the chromatographic logP came to 5.78.

Take `CC(C)(COC(=O)[C@H]1CC(c2c(F)cccc2F)=NC1c1ccc(-c2ccc(OC(F)(F)F)cc2)cc1)[N+](=O)[O-]` (stereo partly drawn) [Example 32]: the chromatographic logP came out at 4.77.

`O=C([C@H]1CC(c2c(F)cccc2F)=NC1c1ccc(-c2ccc(OC(F)(F)F)cc2)cc1)N1CCCC1` (stereo partly drawn) [Example 76]: the chromatographic logP amounted to 3.82.

As for `O=C(NCc1ccc(F)cc1F)[C@H]1CC(c2c(F)cccc2F)=NC1c1ccc(-c2ccc(OC(F)(F)F)cc2)cc1` (stereo partly drawn) [Example 97], the chromatographic logP worked out at 4.23.

For the compound `CC(OC(=O)[C@H]1CC(c2c(F)cccc2F)=NC1c1ccc(-c2ccc(OC(F)(F)F)cc2)cc1)c1ccccc1` (stereo partly drawn) [Example 38], the chromatographic logP was found to be 5.54.

Compound `COc1ccccc1CNC(=O)[C@H]1CC(c2c(F)cccc2F)=NC1c1ccc(-c2ccc(OC(F)(F)F)cc2)cc1` (stereo partly drawn) [Example 94] came in with a chromatographic logP of 4.18.

The compound `CCN(CC)C(=O)[C@H]1CC(c2c(F)cccc2F)=NC1c1ccc(-c2ccc(OC(F)(F)F)cc2)cc1` (stereo partly drawn) [Example 72] had a chromatographic logP of 4.18.

Turning to `Cc1cc(C)cc(CNC(=O)[C@H]2CC(c3c(F)cccc3F)=NC2c2ccc(-c3ccc(OC(F)(F)F)cc3)cc2)c1` (stereo partly drawn) [Example 96], the chromatographic logP is 4.72.

The compound `O=C(NCc1cccs1)[C@H]1CC(c2c(F)cccc2F)=NC1c1ccc(-c2ccc(OC(F)(F)F)cc2)cc1` (stereo partly drawn) [Example 85] had a chromatographic logP of 4.03.

As for `O=C(OCCOc1ccccc1)[C@H]1CC(c2c(F)cccc2F)=NC1c1ccc(-c2ccc(OC(F)(F)F)cc2)cc1` (stereo partly drawn) [Example 42], the chromatographic logP turned out to be 5.21.

As to `CC(C)N(C(=O)COC(=O)[C@H]1CC(c2c(F)cccc2F)=NC1c1ccc(-c2ccc(OC(F)(F)F)cc2)cc1)c1ccc(F)cc1` (stereo partly drawn) [Example 46], the chromatographic logP stood at 4.98.

Take `CC1CCC(OC(=O)[C@H]2CC(c3c(F)cccc3F)=NC2c2ccc(-c3ccc(OC(F)(F)F)cc3)cc2)CC1` (stereo partly drawn) [Example 48]: the chromatographic logP was found to be 6.22.

In turn, `CCCCN(C)C(=O)[C@H]1CC(c2c(F)cccc2F)=NC1c1ccc(-c2ccc(OC(F)(F)F)cc2)cc1` (stereo partly drawn) [Example 70] gave a chromatographic logP of 4.56.

Regarding `CC(C)COC(=O)[C@H]1CC(c2c(F)cccc2F)=NC1c1ccc(-c2ccc(OC(F)(F)F)cc2)cc1` (stereo partly drawn) [Example 17], the chromatographic logP was 5.38.

Consider `CCCCCCOC(=O)[C@H]1CC(c2c(F)cccc2F)=NC1c1ccc(-c2ccc(OC(F)(F)F)cc2)cc1` (stereo partly drawn) [Example 15], for which the chromatographic logP turned out to be 6.11.

Still in this data set, the particulars now being: reversed-phase HPLC column (C 18), pH 7.5, pH 7.5 (marked b), 0.01-molar aqueous phosphate buffer/acetonitrile, 43° C.
In the case of `CCC(C)OC(=O)[C@H]1CC(c2c(F)cccc2F)=NC1c1ccc(-c2ccc(OC(F)(F)F)cc2)cc1` (stereo partly drawn) [Example 16], the chromatographic logP was determined as 5.48.

For `CCCCOC(=O)[C@H]1CC(c2c(F)cccc2F)=NC1c1ccc(-c2ccc(OC(F)(F)F)cc2)cc1` (stereo partly drawn) [Example 14], the chromatographic logP worked out at 5.49. This chromatographic logP and that of the compound before are within 0.2 log units of each other.

For the compound `CC(C)COC(=O)[C@H]1CC(c2c(F)cccc2F)=NC1c1ccc(-c2ccc(OC(F)(F)F)cc2)cc1` (stereo partly drawn) [Example 17], the chromatographic logP was 5.47.

As to `CCCCCCOC(=O)[C@H]1CC(c2c(F)cccc2F)=NC1c1ccc(-c2ccc(OC(F)(F)F)cc2)cc1` (stereo partly drawn) [Example 15], the chromatographic logP worked out at 6.18.
